Measurements: patent US10696615B2, “Prenylated hydroxystilbenes” (The University of Sydney, priority 2011, dated 2020)

Legend:
Assay type in all cases: cell-based, human
K-562 = assay: NCI in vitro cancer screen, Leukemia; conditions: K-562, Leukemia
PC-3 = assay: NCI in vitro cancer screen, Prostate Cancer; conditions: PC-3, Prostate Cancer
SK-MEL-28 = assay: NCI in vitro cancer screen, Melanoma; conditions: SK-MEL-28, Melanoma
SF-295 = assay: NCI in vitro cancer screen, CNS Cancer; conditions: SF-295, CNS Cancer
TK-10 = assay: NCI in vitro cancer screen, Renal Cancer; conditions: TK-10, Renal Cancer
HT29 = assay: NCI in vitro cancer screen, Colon Cancer; conditions: HT29, Colon Cancer
A549/ATCC = assay: NCI in vitro cancer screen, Non-Small Cell Lung Cancer; conditions: Non-Small Cell Lung Cancer
OVCAR-3 = assay: NCI in vitro cancer screen, Ovarian Cancer; conditions: OVCAR-3, Ovarian Cancer
NCI-H23 = assay: NCI in vitro cancer screen, Non-Small Cell Lung Cancer; conditions: NCI-H23, Non-Small Cell Lung Cancer
NCI-H322M = assay: as above; conditions: Non-Small Cell Lung Cancer
MDA-MB-435 = assay: NCI in vitro cancer screen, Melanoma; conditions: MDA-MB-435, Melanoma
MCF7 = assay: NCI in vitro cancer screen, Breast Cancer; conditions: MCF7, Breast Cancer
SK-OV-3 = assay: NCI in vitro cancer screen, Ovarian Cancer; conditions: SK-OV-3, Ovarian Cancer
NCI-H460 = assay: NCI in vitro cancer screen, Non-Small Cell Lung Cancer; conditions: NCI-H460, Non-Small Cell Lung Cancer
ACHN = assay: NCI in vitro cancer screen, Renal Cancer; conditions: Renal Cancer
UACC-62 = assay: NCI in vitro cancer screen, Melanoma; conditions: UACC-62, Melanoma
UO-31 = assay: NCI in vitro cancer screen, Renal Cancer; conditions: UO-31, Renal Cancer
U251 = assay: NCI in vitro cancer screen, CNS Cancer; conditions: U251, CNS Cancer
OVCAR-8 = assay: NCI in vitro cancer screen, Ovarian Cancer; conditions: OVCAR-8, Ovarian Cancer
SNB-75 = assay: NCI in vitro cancer screen, CNS Cancer; conditions: SNB-75, CNS Cancer
KM12 = assay: NCI in vitro cancer screen, Colon Cancer; conditions: KM12, Colon Cancer
DU-145 = assay: NCI in vitro cancer screen, Prostate Cancer; conditions: DU-145, Prostate Cancer
SNB-19 = assay: NCI in vitro cancer screen, CNS Cancer; conditions: SNB-19, CNS Cancer
T-47D = assay: NCI in vitro cancer screen, Breast Cancer; conditions: Breast Cancer
SK-MEL-5 = assay: NCI in vitro cancer screen, Melanoma; conditions: SK-MEL-5, Melanoma
RXF-393 = assay: NCI in vitro cancer screen, Renal Cancer; conditions: RXF 393, Renal Cancer
SK-MEL-2 = assay: NCI in vitro cancer screen, Melanoma; conditions: SK-MEL-2, Melanoma
MDA-MB-468 = assay: NCI in vitro cancer screen, Breast Cancer; conditions: MDA-MB-468, Breast Cancer
SW-620 = assay: NCI in vitro cancer screen, Colon Cancer; conditions: SW-620, Colon Cancer
OVCAR-5 = assay: NCI in vitro cancer screen, Ovarian Cancer; conditions: OVCAR-5, Ovarian Cancer
[1] = Homo sapiens, read-out: LC50 (the source's name)

**Q.** Which results are given for `CC(C)=CCOc1cc(O)cc(/C=C/c2ccc(O)c(O)c2)c1CC=C(C)C` [USYDS14, (E)-2-(3-methyl-2-buten-1-yl)-3-(3-methyl-2-butenyloxy)-3′,4′,5-trihydroxystilbene]?
**A.** GI50 (K-562; Homo sapiens, K562): 833 nM; CC50 (K-562; Homo sapiens, K562, read-out: LC50 (the source's name)): > 100 µM; TGI (K-562): 14.2 µM; GI50 (PC-3; Homo sapiens): 6.65 µM; CC50 (PC-3; [1]): 55 µM; TGI (PC-3): 21.6 µM; GI50 (SK-MEL-28; Homo sapiens): 3.05 µM; LC50 (SK-MEL-28; Homo sapiens): 41.6 µM; TGI (SK-MEL-28): 16.4 µM; GI50 (SF-295; Homo sapiens): 3.91 µM; CC50 (SF-295; [1]): 43.1 µM; TGI (SF-295): 15.3 µM; GI50 (TK-10; Homo sapiens): 3.79 µM; LC50 (TK-10; Homo sapiens): 35.4 µM; TGI (TK-10): 12.1 µM; TGI (HT29): 29.1 µM; GI50 (HT29; Homo sapiens, HT-29): 14 µM; CC50 (HT29; Homo sapiens, HT-29, read-out: LC50 (the source's name)): 60.9 µM; GI50 (A549/ATCC; Homo sapiens): 4.33 µM; CC50 (A549/ATCC; [1]): 45.5 µM; TGI (A549/ATCC): 16.5 µM; GI50 (OVCAR-3; Homo sapiens): 3.52 µM; CC50 (OVCAR-3; [1]): 41.1 µM; TGI (OVCAR-3): 13.5 µM; GI50 (NCI-H23; Homo sapiens): 2920 nM; LC50 (NCI-H23; Homo sapiens): 57.6 µM; TGI (NCI-H23): 17.3 µM; GI50 (NCI-H322M; Homo sapiens): 12.5 µM; LC50 (50% lethal concentration) (NCI-H322M; Homo sapiens): 52.8 µM; TGI (NCI-H322M): 25.7 µM; GI50 (MDA-MB-435; Homo sapiens): 373 nM; CC50 (MDA-MB-435; [1]): 40 µM; TGI (MDA-MB-435): 8.45 µM; GI50 (MCF7; Homo sapiens): 2740 nM; CC50 (MCF7; [1]): 41.9 µM; TGI (MCF7): 11.8 µM; GI50 (SK-OV-3; Homo sapiens): 2850 nM; CC50 (SK-OV-3; [1]): 37.2 µM; TGI (SK-OV-3): 13.7 µM; GI50 (NCI-H460; Homo sapiens): 3.87 µM; CC50 (NCI-H460; [1]): 51.2 µM; TGI (NCI-H460): 14.9 µM; GI50 (ACHN; Homo sapiens): 2980 nM; CC50 (ACHN; [1]): 36.5 µM; TGI (ACHN): 12.5 µM; GI50 (UACC-62; Homo sapiens): 2610 nM; CC50 (UACC-62; [1]): 39.1 µM; TGI (UACC-62): 13.2 µM; GI50 (UO-31; Homo sapiens): 3.71 µM; CC50 (UO-31; [1]): 46.3 µM; TGI (UO-31): 17.9 µM; GI50 (U251; Homo sapiens, U-251): 3.09 µM; CC50 (U251; Homo sapiens, U-251, read-out: LC50 (the source's name)): 39.4 µM; TGI (U251): 12.7 µM; GI50 (OVCAR-8; Homo sapiens): 3.59 µM; CC50 (OVCAR-8; [1]): 64.9 µM; TGI (OVCAR-8): 15.6 µM; GI50 (SNB-75; Homo sapiens): 1790 nM; CC50 (SNB-75; [1]): 29.3 µM; TGI (SNB-75): 7.8 µM; GI50 (KM12; Homo sapiens): 3.74 µM; CC50 (KM12; [1]): 57.4 µM; TGI (KM12): 14.4 µM; TGI (DU-145): 21.1 µM; GI50 (DU-145; Homo sapiens): 8.2 µM; CC50 (DU-145; [1]): 47.5 µM; GI50 (SNB-19; Homo sapiens): 5.01 µM; CC50 (SNB-19; [1]): 52.2 µM; TGI (SNB-19): 20.1 µM; TGI (T-47D): 7.84 µM; GI50 (T-47D; Homo sapiens, T47D): 2710 nM; CC50 (T-47D; Homo sapiens, T47D, read-out: LC50 (the source's name)): 61.8 µM; GI50 (SK-MEL-5; Homo sapiens): 554 nM; CC50 (SK-MEL-5; [1]): 4.46 µM; TGI (SK-MEL-5): 1.87 µM; GI50 (RXF-393; Homo sapiens): 1070 nM; CC50 (RXF-393; [1]): 14.8 µM; TGI (RXF-393): 3.58 µM; GI50 (SK-MEL-2; Homo sapiens): 3.72 µM; LC50 (SK-MEL-2; Homo sapiens): 41.2 µM; TGI (SK-MEL-2): 12.5 µM; GI50 (MDA-MB-468; Homo sapiens): 1420 nM; CC50 (MDA-MB-468; [1]): 16.4 µM; TGI (MDA-MB-468): 4.12 µM; GI50 (SW-620; Homo sapiens): 2880 nM; CC50 (SW-620; [1]): 63.8 µM; TGI (SW-620): 16.7 µM; GI50 (OVCAR-5; Homo sapiens): 12.4 µM; CC50 (OVCAR-5; [1]): 53.6 µM; TGI (OVCAR-5): 25.8 µM
